According to ChEMBL document CHEMBL1201862, “PubChem BioAssay data set” (2004):
The source made the active and inactive calls.

Columns and labels:
Mucolipin-3 = biological target: T1, Mucolipin-3 (Homo sapiens, UniProt Q8TDD5); test: Dose response cell-based high-throughput screening assay for agonists of the transient receptor potential channel ML3 (TRPML3). [Related pubchem assays: 1526, 1424, 1448 ]; format: functional
T1 sequence (Q8TDD5 whole entry): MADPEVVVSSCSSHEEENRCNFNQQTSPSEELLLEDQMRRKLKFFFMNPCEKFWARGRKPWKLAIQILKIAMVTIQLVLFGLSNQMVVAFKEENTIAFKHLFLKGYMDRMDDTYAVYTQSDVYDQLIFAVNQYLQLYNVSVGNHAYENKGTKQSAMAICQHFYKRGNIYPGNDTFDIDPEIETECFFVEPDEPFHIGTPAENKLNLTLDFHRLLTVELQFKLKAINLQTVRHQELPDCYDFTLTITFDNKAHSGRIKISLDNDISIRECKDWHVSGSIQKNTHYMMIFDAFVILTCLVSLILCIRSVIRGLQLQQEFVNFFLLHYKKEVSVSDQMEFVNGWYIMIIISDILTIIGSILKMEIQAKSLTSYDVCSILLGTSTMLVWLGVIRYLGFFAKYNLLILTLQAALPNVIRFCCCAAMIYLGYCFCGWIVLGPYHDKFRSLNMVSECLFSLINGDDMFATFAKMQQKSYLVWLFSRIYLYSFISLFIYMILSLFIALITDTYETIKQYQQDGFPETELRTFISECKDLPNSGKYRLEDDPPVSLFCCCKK

Ion channel NompC = Ion channel NompC (Danio rerio, UniProt Q7T1G6); test: Fluorescence counterscreen assay for TRPML3 agonists: dose response cell-based high-throughput screening assay to identify agonists of the transient receptor potential channel N1 (TRPN1). [Related pubchem assays: 1526, 1424, 1448 ]; format: functional
cells [1] = format: functional, cell-based
[2] = inhibitors of SNCA 5'UTR-driven translation, confirmation, luminescence, H4 neuroglioblastoma cells, dose confirmation (AID 2454); format: functional, cell-based;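 note: H4 neuroglioblastoma cells carrying an alpha-synuclein 5'UTR luciferase reporter; potency for inhibition of the luciferase signal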
HEK293 [3] = test: cells; format: functional, cell-based; conditions: Homo sapiens
[4] = biological target: Nucleotide-binding oligomerization domain-containing protein 2 (Homo sapiens, UniProt Q9HC29); test: NOD2 signaling inhibitors, cell-based, luminescence, uHTS, HEK293 (AID 1566); format: functional
HEK293 [5] = test: NOD1 signaling inhibitors, primary screen, cell-based, luminescence, uHTS (AID 1578); format: functional; conditions: Homo sapiens
HEK293 [6] = test: cells; format: functional, cell-based; conditions: Homo sapiens; remark: listed apart in the source
[7] = inhibitors of SNCA 5'UTR-driven reporter translation, confirmation, H4 neuroglioma cells, luminescence (AID 1988); format: functional, cell-based
[8] = inhibitors of firefly luciferase expression or activity, dose response, H4 neuroglioma cells, luminescence (AID 1990); format: functional, cell-based
HEK293 [9] = test: NOD2 signaling inhibitors in MDP-stimulated cells, cell-based, uHTS, luminescence (AID 2001); format: functional; conditions: Homo sapiens
[10] = Luminescence Cell-Based Dose Response HTS to Identify Inhibitors of 5'UTR Stem-Loop Driven Prion Protein mRNA Translation in H4 Neuroglioblastoma Cells. [Related pubchem assays: 1827 (Project Summary), 1813 (Primary HTS)]; format: functional
[11] = luciferase reporter signal reduction – luminescence, H4-C neuroglioblastoma cells, dose response (AID 2458); format: functional, cell-based;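 note: H4 neuroglioblastoma cells stably carrying a luciferase reporter gene fusion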
HEK293 [12] = test: cells; format: functional, cell-based; conditions: Homo sapiens; remark: listed apart in the source
Aminopeptidase N = biological target: T2, Aminopeptidase N (Plasmodium falciparum FcB1/Columbia, UniProt O96935); test: P. falciparum M1AAP inhibitors, biochemical, fluorogenic H-Leu-NHMec substrate, 1536-well (AID 1445); design: species or system Plasmodium falciparum 3D7, 3D7
T2 sequence (O96935 whole entry): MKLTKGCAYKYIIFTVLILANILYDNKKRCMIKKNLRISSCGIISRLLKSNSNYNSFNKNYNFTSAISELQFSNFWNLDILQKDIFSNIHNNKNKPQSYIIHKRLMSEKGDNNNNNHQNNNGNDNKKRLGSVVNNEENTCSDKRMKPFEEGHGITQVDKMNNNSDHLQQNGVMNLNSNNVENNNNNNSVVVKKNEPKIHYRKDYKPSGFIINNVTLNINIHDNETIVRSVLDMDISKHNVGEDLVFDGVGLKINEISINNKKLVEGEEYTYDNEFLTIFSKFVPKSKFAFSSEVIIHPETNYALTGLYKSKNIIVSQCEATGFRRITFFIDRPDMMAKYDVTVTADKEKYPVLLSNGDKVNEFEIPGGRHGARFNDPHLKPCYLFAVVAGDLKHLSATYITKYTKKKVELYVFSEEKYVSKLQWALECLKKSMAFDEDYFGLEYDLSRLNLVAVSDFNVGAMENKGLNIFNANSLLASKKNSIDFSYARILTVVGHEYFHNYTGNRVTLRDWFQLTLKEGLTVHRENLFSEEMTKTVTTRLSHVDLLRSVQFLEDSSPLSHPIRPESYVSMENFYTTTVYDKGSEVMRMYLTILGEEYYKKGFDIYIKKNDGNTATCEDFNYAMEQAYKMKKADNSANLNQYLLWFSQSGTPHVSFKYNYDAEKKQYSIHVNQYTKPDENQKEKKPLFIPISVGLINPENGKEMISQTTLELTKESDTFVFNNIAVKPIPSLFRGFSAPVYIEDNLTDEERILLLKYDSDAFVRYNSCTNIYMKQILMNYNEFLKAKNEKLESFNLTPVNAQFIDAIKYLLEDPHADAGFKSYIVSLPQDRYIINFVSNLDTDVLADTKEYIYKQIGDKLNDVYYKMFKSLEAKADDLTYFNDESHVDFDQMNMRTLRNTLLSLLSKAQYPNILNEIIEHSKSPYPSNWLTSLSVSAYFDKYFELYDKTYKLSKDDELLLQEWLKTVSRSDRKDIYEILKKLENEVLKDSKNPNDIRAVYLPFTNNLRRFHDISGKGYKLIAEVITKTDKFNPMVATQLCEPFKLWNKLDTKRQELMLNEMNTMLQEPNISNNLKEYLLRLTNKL

[13] = LGR2 antagonists, dose response, cell-based, HEK293, CRE-luciferase reporter, cherry pick, set 2 (AID 743343); format: functional;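 note: transfected cells were stimulated with diluted bursicon conditioned medium after compound addition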
INS1 = test: beta cell apoptosis inhibitors, cytokine rescue, dose response, luminescence, retest (AID 449756); format: functional, cell-based; conditions: Rattus norvegicus;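 note: cell death triggered by IL-1 beta plus TNF-alpha plus IFN-gamma mixture; protective hits raise ATP signal compared with cytokine alone wells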
[14] = HepG2 cell cytotoxicity, dose response, cytotoxicity control, plate reader, cherry-pick, antagonist series (AID 743416); format: functional, cell-based
[15] = MC4R antagonists, dose response, counter-screen for LGR2 antagonist project, cell-based, plate reader, cherry pick (AID 743444); format: functional;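 note: transfected HEK 293 cells stimulated with alpha-MSH peptide; potency of inhibitors of the alpha-MSH evoked signal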
[16] = A549 cell cytotoxicity, dose response, cytotoxicity control, plate reader, cherry-pick, antagonist series (AID 743412); format: functional, cell-based
Protein Tat = biological target: T3, Protein Tat (Human immunodeficiency virus type 1 group M subtype B (isolate HXB2)(HIV-1), UniProt P04608); format: functional;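 note: tat binding to TAR RNA read out by fluorescence polarization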
T3 sequence (P04608 whole entry): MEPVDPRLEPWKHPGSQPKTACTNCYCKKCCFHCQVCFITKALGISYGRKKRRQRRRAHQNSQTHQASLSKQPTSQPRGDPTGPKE

cells [17] = test: cells
Large T antigen = Large T antigen (Simian virus 40, UniProt P03070); format: functional, Betapolyomavirus macacae;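 note: Confirmatory-stage PubChem screen for compounds that inhibit SV40 T antigen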
[18] = C. albicans growth with fluconazole, confirmation, fluorescence, retest (AID 2467); format: functional, cell-based
[19] = NIH-3T3 fibroblast cytotoxicity, dose response, cytotoxicity control, cell-based, fluorescence, Alamar Blue, secondary assay (AID 2327); format: functional;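 note: NIH-3T3 mouse fibroblasts cultured with fluconazole at 8 µg/mL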
[20] = biological target: T4, Short transient receptor potential channel 4 (Mus musculus, UniProt Q9QUQ5); test: mouse TRPC4 channel inhibitors, dose response, cell-based, HEK293 TRPC4/mu-opioid, Fluo-4 calcium (AID 434942); format: functional;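 note: potency of inhibitors blocking the TRPC4 calcium response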
T4 sequence (Q9QUQ5 whole entry): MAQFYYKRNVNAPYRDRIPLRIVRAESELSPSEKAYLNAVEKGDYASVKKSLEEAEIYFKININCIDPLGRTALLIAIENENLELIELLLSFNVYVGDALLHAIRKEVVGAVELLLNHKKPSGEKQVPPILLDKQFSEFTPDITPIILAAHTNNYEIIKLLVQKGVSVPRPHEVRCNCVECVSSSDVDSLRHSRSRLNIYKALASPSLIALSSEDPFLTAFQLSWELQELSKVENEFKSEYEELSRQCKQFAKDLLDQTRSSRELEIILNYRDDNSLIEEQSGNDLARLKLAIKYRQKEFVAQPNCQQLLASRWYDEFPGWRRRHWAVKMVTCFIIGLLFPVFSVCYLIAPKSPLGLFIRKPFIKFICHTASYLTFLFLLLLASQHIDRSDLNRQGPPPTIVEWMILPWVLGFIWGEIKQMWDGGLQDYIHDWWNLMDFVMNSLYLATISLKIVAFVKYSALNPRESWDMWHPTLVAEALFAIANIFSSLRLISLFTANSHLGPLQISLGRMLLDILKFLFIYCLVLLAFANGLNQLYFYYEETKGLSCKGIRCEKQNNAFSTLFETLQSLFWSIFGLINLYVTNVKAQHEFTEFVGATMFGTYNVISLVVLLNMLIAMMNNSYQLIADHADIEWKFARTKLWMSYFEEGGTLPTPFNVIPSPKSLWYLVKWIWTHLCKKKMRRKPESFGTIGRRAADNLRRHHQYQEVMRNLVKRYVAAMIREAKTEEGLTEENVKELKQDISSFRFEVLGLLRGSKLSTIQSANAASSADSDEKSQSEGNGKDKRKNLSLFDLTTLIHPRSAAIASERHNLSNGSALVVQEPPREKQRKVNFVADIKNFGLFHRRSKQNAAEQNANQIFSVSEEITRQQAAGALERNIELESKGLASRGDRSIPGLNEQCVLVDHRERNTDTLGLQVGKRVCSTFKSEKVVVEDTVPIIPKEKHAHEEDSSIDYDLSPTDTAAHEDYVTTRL

[21] = inhibitors of intracellular T. cruzi replication, confirmation, NIH3T3 host cells, beta-gal luminescence (AID 2044); format: functional, cell-based;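 note: intracellular parasites grown in NIH/3T3 mouse fibroblasts as host cells; luminescent beta-galactosidase reporter signal from transgenic T. cruzi replicating inside host cells; inhibitors lower the luminescence signal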
[22] = cytotoxicity toward NIH3T3 fibroblasts, dose response, counter-screen, cell-based, ATP luminescence, mouse fibroblasts (AID 2010); format: functional;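 note: cells exposed to compound for about 90 hours before reading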
Estrogen receptor beta = Estrogen receptor beta (Homo sapiens, UniProt Q92731); test: ERβ–SRC-3 coactivator interaction inhibitors, confirmation, orthogonal assay, biochemical, ELISA, streptavidin-HRP readout (AID 1060)
Sequence of Estrogen receptor beta (Q92731 whole entry): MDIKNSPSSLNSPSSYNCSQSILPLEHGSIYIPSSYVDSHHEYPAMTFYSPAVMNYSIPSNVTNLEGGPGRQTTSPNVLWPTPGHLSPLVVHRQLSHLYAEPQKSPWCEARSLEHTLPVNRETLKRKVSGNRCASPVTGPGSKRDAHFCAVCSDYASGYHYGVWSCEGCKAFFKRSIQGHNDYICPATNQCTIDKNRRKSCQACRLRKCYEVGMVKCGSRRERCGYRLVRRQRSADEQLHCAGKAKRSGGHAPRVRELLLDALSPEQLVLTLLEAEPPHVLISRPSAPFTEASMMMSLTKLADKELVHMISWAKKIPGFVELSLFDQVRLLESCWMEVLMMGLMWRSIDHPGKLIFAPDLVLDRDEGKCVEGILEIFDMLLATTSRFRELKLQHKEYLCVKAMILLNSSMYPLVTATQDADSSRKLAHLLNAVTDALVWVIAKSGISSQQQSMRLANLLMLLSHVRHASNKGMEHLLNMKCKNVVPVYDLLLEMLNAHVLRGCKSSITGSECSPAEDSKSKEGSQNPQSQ

Sequence of Ion channel NompC (Q7T1G6 whole entry): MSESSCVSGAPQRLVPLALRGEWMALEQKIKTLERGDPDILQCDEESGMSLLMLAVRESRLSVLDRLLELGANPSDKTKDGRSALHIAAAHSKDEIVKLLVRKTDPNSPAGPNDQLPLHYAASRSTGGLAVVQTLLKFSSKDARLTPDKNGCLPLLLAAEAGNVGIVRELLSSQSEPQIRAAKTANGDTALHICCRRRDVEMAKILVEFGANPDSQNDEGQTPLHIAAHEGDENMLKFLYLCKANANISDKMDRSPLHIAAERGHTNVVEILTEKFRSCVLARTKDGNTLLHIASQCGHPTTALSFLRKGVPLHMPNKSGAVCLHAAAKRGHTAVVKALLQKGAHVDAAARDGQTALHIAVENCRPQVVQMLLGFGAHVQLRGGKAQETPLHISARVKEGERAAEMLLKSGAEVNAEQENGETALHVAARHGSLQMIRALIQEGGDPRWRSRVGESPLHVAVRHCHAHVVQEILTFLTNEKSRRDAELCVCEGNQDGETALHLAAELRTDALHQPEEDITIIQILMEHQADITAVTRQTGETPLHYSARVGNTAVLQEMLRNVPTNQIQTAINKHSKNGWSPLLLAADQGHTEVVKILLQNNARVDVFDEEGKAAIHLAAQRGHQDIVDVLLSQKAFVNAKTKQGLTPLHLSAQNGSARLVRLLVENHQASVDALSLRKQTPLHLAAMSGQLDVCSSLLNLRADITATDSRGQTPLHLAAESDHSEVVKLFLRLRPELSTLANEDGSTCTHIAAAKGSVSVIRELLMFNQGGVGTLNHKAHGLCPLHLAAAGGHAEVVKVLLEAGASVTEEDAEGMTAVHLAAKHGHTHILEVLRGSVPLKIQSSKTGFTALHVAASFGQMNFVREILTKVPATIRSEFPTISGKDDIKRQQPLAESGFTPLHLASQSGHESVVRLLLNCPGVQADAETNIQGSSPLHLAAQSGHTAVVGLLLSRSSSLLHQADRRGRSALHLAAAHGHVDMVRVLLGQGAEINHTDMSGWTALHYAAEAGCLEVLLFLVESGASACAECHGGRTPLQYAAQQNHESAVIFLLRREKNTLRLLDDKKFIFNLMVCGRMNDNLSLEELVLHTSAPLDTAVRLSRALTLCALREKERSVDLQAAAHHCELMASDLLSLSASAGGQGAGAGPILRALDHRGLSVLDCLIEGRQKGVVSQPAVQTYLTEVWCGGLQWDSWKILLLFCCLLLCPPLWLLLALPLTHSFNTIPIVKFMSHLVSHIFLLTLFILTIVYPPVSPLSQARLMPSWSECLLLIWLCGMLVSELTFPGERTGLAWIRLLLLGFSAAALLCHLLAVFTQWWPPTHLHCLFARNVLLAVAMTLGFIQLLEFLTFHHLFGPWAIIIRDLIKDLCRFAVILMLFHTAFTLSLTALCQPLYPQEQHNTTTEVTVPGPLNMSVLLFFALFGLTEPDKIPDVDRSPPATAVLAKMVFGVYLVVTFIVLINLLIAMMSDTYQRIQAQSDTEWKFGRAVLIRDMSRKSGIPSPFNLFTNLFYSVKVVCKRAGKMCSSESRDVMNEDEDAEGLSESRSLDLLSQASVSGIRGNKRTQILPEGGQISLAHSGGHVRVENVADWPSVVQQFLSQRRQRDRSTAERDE
Sequence of Large T antigen (P03070 whole entry): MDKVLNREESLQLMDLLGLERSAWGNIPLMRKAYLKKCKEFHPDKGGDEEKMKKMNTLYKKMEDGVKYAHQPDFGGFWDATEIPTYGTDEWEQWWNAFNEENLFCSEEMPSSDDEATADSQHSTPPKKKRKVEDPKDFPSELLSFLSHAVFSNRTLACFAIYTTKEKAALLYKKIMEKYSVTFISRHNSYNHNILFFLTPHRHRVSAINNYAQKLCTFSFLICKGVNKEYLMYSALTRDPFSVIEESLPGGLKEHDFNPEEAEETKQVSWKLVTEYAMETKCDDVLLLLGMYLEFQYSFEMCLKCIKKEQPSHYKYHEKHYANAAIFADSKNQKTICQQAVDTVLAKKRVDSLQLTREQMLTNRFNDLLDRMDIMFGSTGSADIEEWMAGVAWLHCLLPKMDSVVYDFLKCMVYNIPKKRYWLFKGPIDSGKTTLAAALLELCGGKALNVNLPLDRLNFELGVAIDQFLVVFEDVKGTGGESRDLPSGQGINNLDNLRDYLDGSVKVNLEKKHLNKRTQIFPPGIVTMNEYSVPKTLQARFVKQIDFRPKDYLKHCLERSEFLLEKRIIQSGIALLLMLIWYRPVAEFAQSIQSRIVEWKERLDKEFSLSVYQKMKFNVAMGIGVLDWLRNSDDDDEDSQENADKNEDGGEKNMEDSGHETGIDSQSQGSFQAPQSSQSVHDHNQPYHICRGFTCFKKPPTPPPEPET
Sequence of Nucleotide-binding oligomerization domain-containing protein 2 (Q9HC29 whole entry, the tested form may be a part): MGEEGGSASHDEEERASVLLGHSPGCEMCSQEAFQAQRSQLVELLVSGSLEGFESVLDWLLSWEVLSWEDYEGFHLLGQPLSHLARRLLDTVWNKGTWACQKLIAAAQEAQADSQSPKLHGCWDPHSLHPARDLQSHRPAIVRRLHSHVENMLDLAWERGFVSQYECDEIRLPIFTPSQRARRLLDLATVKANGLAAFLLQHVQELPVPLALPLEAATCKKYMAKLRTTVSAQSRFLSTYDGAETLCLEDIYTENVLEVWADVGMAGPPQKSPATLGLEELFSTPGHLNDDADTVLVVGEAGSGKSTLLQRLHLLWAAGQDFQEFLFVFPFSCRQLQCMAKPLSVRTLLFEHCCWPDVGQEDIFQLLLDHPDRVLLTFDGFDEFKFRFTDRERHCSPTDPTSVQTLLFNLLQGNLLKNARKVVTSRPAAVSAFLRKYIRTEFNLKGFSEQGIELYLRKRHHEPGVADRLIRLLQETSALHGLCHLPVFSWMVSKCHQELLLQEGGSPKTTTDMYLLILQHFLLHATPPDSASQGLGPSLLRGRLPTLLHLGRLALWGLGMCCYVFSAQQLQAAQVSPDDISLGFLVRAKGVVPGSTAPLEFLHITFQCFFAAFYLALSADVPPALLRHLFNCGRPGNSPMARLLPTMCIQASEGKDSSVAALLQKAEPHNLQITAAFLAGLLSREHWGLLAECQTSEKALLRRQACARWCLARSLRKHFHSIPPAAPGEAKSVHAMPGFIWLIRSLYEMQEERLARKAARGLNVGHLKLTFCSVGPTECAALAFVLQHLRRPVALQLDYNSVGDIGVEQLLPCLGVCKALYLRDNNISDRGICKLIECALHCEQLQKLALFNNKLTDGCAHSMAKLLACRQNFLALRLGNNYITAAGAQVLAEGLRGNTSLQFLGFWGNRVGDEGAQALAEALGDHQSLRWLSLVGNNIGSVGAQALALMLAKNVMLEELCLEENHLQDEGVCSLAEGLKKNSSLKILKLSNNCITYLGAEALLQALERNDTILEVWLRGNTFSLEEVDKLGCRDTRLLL

COc1ccc(N(C)S(=O)(=O)c2ccc(C)cc2)c([N+](=O)[O-])c1
EC50 (Mucolipin-3): 3.13 µM (active)
EC50 (Ion channel NompC): > 29.9 µM (not active)

O=C(C1=C(O)C(=O)N(c2nccs2)C1c1ccccc1)c1ccc2c(c1)OCCO2 (centres undefined)
EC50 (cells [1]): 1.11 µM (active)
EC50 [2]: 1.93 µM (active)
IC50 (HEK293 [3]): > 20 µM (inactive)
EC50 [4]: 5.45 µM (active)
EC50 (HEK293 [5]): 11.5 µM (active)
IC50 (HEK293 [6]): > 20 µM (inactive)
EC50 [7]: 7.17 µM (active)
EC50 [8]: 0.146 µM (active)
IC50 (HEK293 [9]): 18.6 µM (inactive)
EC50 [10]: < 0.1 µM (active)
EC50 [11]: 4.2 µM (active)
IC50 (HEK293 [12]): > 20 µM (inactive)

O=C(NN1C(=O)c2ccccc2NC1c1ccco1)c1ccccc1 (centres undefined)
IC50 (Aminopeptidase N): 61.3 µM (active)

O=C(CN1C(=O)c2ccccc2S1(=O)=O)c1ccc(F)cc1
AC50 [13]: 2.75 µM (active)
EC50 (cells [1]): 1.87 µM (active)
EC50 [2]: 2.32 µM (active)
AC50 (INS1): > 260 µM (inactive)
AC50 [14]: > 52 µM (inactive)
AC50 [15]: 3.02 µM (active)
EC50 [7]: 5.89 µM (active)
AC50 [16]: > 52 µM (inactive)
EC50 [8]: 11.4 µM (active)
EC50 [10]: < 0.1 µM (active)
EC50 [11]: 1.12 µM (active)

Cc1cc(C(C)c2ccccc2)c(O)c(CN2CCOCC2)c1C (centres undefined)
IC50 (Protein Tat): > 100 µM (active)
EC50 (Mucolipin-3): 5.07 µM (active)
EC50 (Ion channel NompC): > 29.9 µM (not active)

CCCC[n+]1c2ccccc2cc2ccccc21
EC50 (cells [17]): 0.041 µM (active)
IC50 (Large T antigen): 42.4 µM (active)
EC50 [18]: 0.604 µM (active)
EC50 [19]: > 150 µM (inactive)
EC50 [20]: 4.22 µM (active)
EC50 [21]: < 0.1 µM (active)
EC50 [22]: > 60 µM (not active)

O=S(=O)(c1ccccc1)C1(S(=O)(=O)c2ccccc2)CCCC1
EC50 (Mucolipin-3): 5.62 µM (active)
EC50 (Ion channel NompC): > 29.9 µM (not active)

CN1CCN(CC(=O)Nc2sc3c(c2C#N)CCCC3)CC1
IC50 (Estrogen receptor beta): 15 µM (not active)
